Values joined by “and” are separate entries in the source; they are usually repeats but may differ in a detail not shown here. Identical values can stand only once. “Also recorded” adds a separate entry of the source. Like-named read-outs stand apart in the source and are kept apart here.
Experiments:
[1] = tested on: TSPO A147T (polymorphism rs6971); conditions: human polymorphism rs6971; cited from earlier work
rec-mTSPO WT = biological target: T1, rec-mTSPO WT (Mus musculus, UniProt P50637); test: [3H]-PK 11195 saturation binding to rec-mTSPO reconstituted in proteoliposomes
T1 construct: His tag; made in house; host or cells: E. coli BL21 DE3
Procedure: (§1) SDS-solubilized mTSPO was reincorporated in proteoliposomes by mixing with SDS solubilized lipids (dimyristoyl phosphatidyl choline/dimyristoyl phosphatidyl ethanolamine, 9:1) at a lipid to protein ratio of 5 (w/w). The detergent was removed using Bio-Beads SM2 according to published protocols. Reconstitution was followed by combining the fluorescence and optical changes as previously described.
(§2) Proteoliposomes containing recombinant mTSPO were incubated with various concentrations of [^3H]-PK 11195 (SA, 83.5 Ci/mmol, Perkin Elmer SAS, Courtaboeuf, France) in phosphate buffer saline (PBS). The bound ligand was quantified by liquid scintillation spectrometry after filtration on Whatman Filters GF/C (Sigma-Aldrich, Saint Quentin Fallavier, France) according to published protocols. The Kd and Bmax values were determined by fitting the saturation curves with the following equation Ligand bound = (Bmax × Ligand)/(Kd + Ligand).

rec-mTSPO F100A = biological target: T2, rec-mTSPO F100A (Mus musculus, UniProt P50637, F100A); test: as above
T2 construct: His tag; made in house; host or cells: E. coli
Procedure: (§3) Mutations were performed using the QuikChange Site-Directed Mutagenesis kit (Stratagene, France) according to published protocols. In brief, miniprep pET-PBR plasmid double-strand DNA was used as a template. Synthetic oligonucleotide primer pairs containing a point mutation or deletion, each complementary to the opposing strand of the vector, were extended during temperature cycling by pfu DNA polymerase. The nicked vector DNAs containing the desired mutations were then transfected into E. coli.
as §1, §2

rec-mTSPO Y34F = biological target: T3, rec-mTSPO Y34F (Mus musculus, UniProt P50637, Y34F); test: as above
T3 construct: His tag; made in house; host or cells: E. coli
Procedure: as §3, §1, §2

rec-mTSPO Y34F/F100A = biological target: T4, rec-mTSPO Y34F/F100A (Mus musculus, UniProt P50637, F100A/Y34F); test: as above
T4 construct: His tag; made in house; host or cells: E. coli
Procedure: as §3, §1, §2

rec-mTSPO Y34F/F99A = biological target: T5, rec-mTSPO Y34F/F99A (Mus musculus, UniProt P50637, F99A/Y34F); test: as above
T5 construct: His tag; made in house; host or cells: E. coli
Procedure: as §3, §1, §2

rec-mTSPO Y34S = biological target: T6, rec-mTSPO Y34S (Mus musculus, UniProt P50637, Y34S); test: as above
T6 construct: His tag; made in house; host or cells: E. coli
Procedure: as §3, §1, §2

rec-mTSPO Δ41–51 = biological target: T7, rec-mTSPO Δ41–51 (Mus musculus, UniProt P50637, DEL41-51); test: as above; conditions: Δ41–50 as printed in Table 1
T7 construct: His tag; made in house; host or cells: E. coli
Procedure: as §3, §1, §2

[2] = biological target: T8, rec-mTSPO ΔC-ter (153–169) (Mus musculus, UniProt P50637); test: as above
T8 construct: His tag; made in house; host or cells: E. coli
Procedure: as §3, §1, §2

[3] = tested on: WT and mutants of TSPO reconstituted in liposomes; test: [3H]-PK 11195 saturation binding to rec-mTSPO reconstituted in proteoliposomes, all constructs; set-up: species or system mouse; conditions: all stoichiometries obtained
Procedure: as §1, §2

rec-mTSPO [4] = biological target: T9, rec-mTSPO (Mus musculus, UniProt P50637); test: Limited trypsin digestion of rec-mTSPO solubilized in DPC; conditions: DPC 0.1%, 30 °C, TSPO:trypsin 30:1; 100 µM PK 11195 and increasing concentrations
T9 construct: His tag; made in house; host or cells: E. coli BL21 DE3
Procedure: Proteolysis was performed by mixing rec-mTSPO (0.2 mg/mL) solubilized in DPC (0.1%) and a phosphate buffer (10 mM at pH 7.0) with protease at a TSPO:Trypsin ratio of 30:1 (w/w).

rec-mTSPO [5] = biological target: T9, rec-mTSPO; test: Circular dichroism of rec-mTSPO in DPC with PK 11195; conditions: increasing amounts of PK 11195, high ligand over protein molar ratios
Procedure: Far UV circular dichroism spectra were recorded on a Jobin-Yvon CD6 spectropolarimeter operated at room temperature according to published protocols [19, 25, 45]. Briefly, a detergent solubilized mTSPO sample (5 µM) in a 10 mM sodium phosphate buffer solution was placed in a 0.2 mm path length quartz cuvette (Hellma, Paris, France). The CD spectra were recorded in the 185 to 270 nm wavelength range with a 0.2 nm step resolution, 1 s signal averaging time and 1 nm bandwidth. The spectra were averaged over five scans, corrected for background and smoothed over 25 points. A consensus secondary structure content was estimated by spectral deconvolution using CONTINLL, CDSSTR and Selcon software and datasets of reference proteins SMP50 (37 soluble proteins and 13 membrane proteins) and SP37 (37 soluble proteins) [46], as well as CDFriend.

TSPO Wild-type = biological target: TSPO Wild-type; set-up: method as in Farges et al. (1994); conditions: yeast mitochondria, ref Farges et al. (1994), read-out: PK 11195 Kd; cited from earlier work
TSPO ∆2-20 = biological target: TSPO ∆2-20; set-up: method as in Farges et al. (1994); conditions: yeast mitochondria, ref Farges et al. (1994), read-out: PK 11195 Kd; cited from earlier work
human TSPO ∆15-35 = conditions: cited from earlier work
TSPO ∆158-159 = biological target: TSPO ∆158-159; set-up: method as in Farges et al. (1994); conditions: yeast mitochondria, ref Farges et al. (1994), read-out: PK 11195 Kd; cited from earlier work
TSPO ∆157-169 = biological target: TSPO ∆157-169; set-up: method as in Farges et al. (1994); conditions: yeast mitochondria, ref Farges et al. (1994), read-out: PK 11195 Kd; cited from earlier work
TSPO ∆156-169 = biological target: TSPO ∆156-169; set-up: method as in Farges et al. (1994); conditions: yeast mitochondria, ref Farges et al. (1994), read-out: PK 11195 Kd; cited from earlier work
TSPO ∆2-20,158-169 = biological target: TSPO ∆2-20,158-169; set-up: method as in Farges et al. (1994); conditions: yeast mitochondria, ref Farges et al. (1994), read-out: PK 11195 Kd; cited from earlier work
mammalian TSPO ∆5-20 = tested on: mammalian TSPO ∆5-20; set-up: method as in Li et al. (1998); conditions: bacterial protoplast, control = wild type, ref Li et al. (1998); cited from earlier work
mammalian TSPO ∆41-51 = tested on: mammalian TSPO ∆41-51; set-up: method as in Li et al. (1998); conditions: bacterial protoplast, control = wild type, ref Li et al. (1998); cited from earlier work
mammalian TSPO ∆108-119 = tested on: mammalian TSPO ∆108-119; set-up: method as in Li et al. (1998); conditions: bacterial protoplast, control = wild type, ref Li et al. (1998); cited from earlier work
mammalian TSPO ∆120-133 = tested on: mammalian TSPO ∆120-133; set-up: method as in Li et al. (1998); conditions: bacterial protoplast, control = wild type, ref Li et al. (1998); cited from earlier work
mammalian TSPO ∆141-152 = tested on: mammalian TSPO ∆141-152; set-up: method as in Li et al. (1998); conditions: bacterial protoplast, control = wild type, ref Li et al. (1998); cited from earlier work
mammalian TSPO ∆153-169 = tested on: mammalian TSPO ∆153-169; set-up: method as in Li et al. (1998); conditions: bacterial protoplast, control = wild type, ref Li et al. (1998); cited from earlier work
TSPO V26T = tested on: TSPO V26T; set-up: method as in PMID 7808437; conditions: cited from earlier work
TSPO W42 mutation = tested on: TSPO W42 mutation; set-up: method as in PMID 7808437; conditions: cited from earlier work
TSPO W47 mutation = tested on: TSPO W47 mutation; set-up: method as in PMID 7808437; conditions: cited from earlier work
TSPO R32G = tested on: TSPO R32G; set-up: method as in PMID 7808437; conditions: cited from earlier work
TSPO K39G = tested on: TSPO K39G; set-up: method as in PMID 7808437; conditions: cited from earlier work
TSPO R103A = tested on: TSPO R103A; set-up: method as in PMID 7808437; conditions: cited from earlier work
TSPO2 = tested on: TSPO2; set-up: method as in PMID 19729679; conditions: paralogous TSPO2; cited from earlier work
rec-mTSPO [6] = biological target: T9, rec-mTSPO; conditions: cited from earlier work

SMILES: COc1ccccc1CN(C(C)=O)c1cnccc1Oc1ccccc1 [PBR28]
- decrease of the affinity due to A147T polymorphism [1]: one or two orders of magnitude

SMILES: CCC(C)N(C)C(=O)c1cc2ccccc2c(-c2ccccc2Cl)n1 (centres unmarked) [PK 11195, N-butan-2-yl-1-(2-chlorophenyl)-N-methylisoquinoline-3-carboxamide]
- Kd (rec-mTSPO WT; proteoliposomes, fit of saturation curve): 8 ± 3 nM
- Bmax (rec-mTSPO WT; stoichiometry, nmol PK 11195 bound per mg recombinant TSPO): 25 ± 3 nmol/mg
- Bmax (rec-mTSPO F100A): 25 ± 7 nmol/mg
- Kd (rec-mTSPO F100A): 20 ± 5 nM
- Bmax (rec-mTSPO Y34F): 27 ± 3 nmol/mg
- Kd (rec-mTSPO Y34F): 20 ± 3 nM
- decrease in affinity for PK 11195 compared with WT (rec-mTSPO Y34F/F100A; Y34F/F100A vs WT): 20 fold
- Bmax (rec-mTSPO Y34F/F100A; Y34F/F100A, proteoliposomes): 25 ± 10 nmol/mg
- Kd (rec-mTSPO Y34F/F100A; Y34F/F100A, proteoliposomes): 150 ± 20 nM
- decrease in affinity for PK 11195 compared with WT (rec-mTSPO Y34F/F99A; Y34F/F99A vs WT): 20 fold
- Bmax (rec-mTSPO Y34F/F99A; Y34F/F99A, proteoliposomes): 25 ± 10 nmol/mg
- Kd (rec-mTSPO Y34F/F99A; Y34F/F99A, proteoliposomes): 150 ± 20 nM
- Bmax (rec-mTSPO Y34S): 25 ± 5 nmol/mg
- Kd (rec-mTSPO Y34S): 40 ± 7 nM
- Bmax (rec-mTSPO Δ41–51): 25 ± 8 nmol/mg
- Kd (rec-mTSPO Δ41–51): 20 ± 8 nM
- Bmax [2]: 30 ± 10 nmol/mg
- Kd [2]: 20 ± 5 nM
- stoichiometry (Bmax) [3]: 25–30 nmol of PK 11195 bound per mg of recombinant TSPO
- effect on proteolytic cleavage of rec-mTSPO by trypsin (rec-mTSPO [4]): protected against cleavage
- effect on CD spectrum of rec-mTSPO (rec-mTSPO [5]): increasing changes in the CD spectrum
- Kd (TSPO Wild-type): 6 ± 3 nM
- Kd (TSPO ∆2-20): 25 ± 8 nM
- effect of deletion on PK 11195 binding (human TSPO ∆15-35; Δ15–35 of human TSPO overexpressed in yeast): complete loss of PK 11195 binding; also recorded: loses its binding capacity
- Kd (human TSPO ∆15-35; ∆15-35, yeast mitochondria, ref Farges et al. (1994), read-out: PK 11195 Kd): > 200 nM
- Kd (TSPO ∆158-159): 10 ± 6 nM
- Kd (TSPO ∆157-169): 9 ± 3 nM
- Kd (TSPO ∆156-169): 10 ± 4 nM
- Kd (TSPO ∆2-20,158-169): > 200 nM
- PK 11195 binding % of control (mammalian TSPO ∆5-20): ~ 70 % of control
- PK 11195 binding % of control (mammalian TSPO ∆41-51): ~ 55 % of control and 55 % of control
- PK 11195 binding % of control (mammalian TSPO ∆108-119): ~ 70 % of control
- PK 11195 binding % of control (mammalian TSPO ∆120-133): ~ 55 % of control
- PK 11195 binding % of control (mammalian TSPO ∆141-152): ~ 75 % of control
- PK 11195 binding % of control (mammalian TSPO ∆153-169): ~ 75 % of control and 75 % of control
- effect of mutation on PK 11195 binding (TSPO V26T): complete loss of PK 11195 binding
- effect of mutation on PK 11195 binding (TSPO W42 mutation): no effect
- effect of mutation on PK 11195 binding (TSPO W47 mutation): no effect
- effect of mutation on PK 11195 binding (TSPO R32G): no effect
- effect of mutation on PK 11195 binding (TSPO K39G): no effect
- effect of mutation on PK 11195 binding (TSPO R103A): no effect
- binding to TSPO2 (TSPO2): not binding
- effect of A147T polymorphism on affinity [1]: no effect
- PK 11195 binding in detergent (rec-mTSPO [6]; SDS-solubilized rec-mTSPO): no PK 11195 binding
- affinity with detergent-solubilized rec-mTSPO (rec-mTSPO [6]; detergent-solubilized, additional interaction between PK 11195 and detergent): micro-millimolar range
- PK 11195 binding in detergent (rec-mTSPO [6]; rec-mTSPO in the presence of DPC): observed
